{
  "source": "patent US20160068818A1",
  "about": "“A METHOD FOR GENERATING INDUCED PLURIPOTENT STEM CELLS” (Glykos Finland Oy, priority 2013, published 2016)",
  "type_in_all_cases": "cell-based, human",
  "key": {"[1]": {"system": "hESC and hiPSC (FES 29, HEL 11.4) attachment to ECA", "assay": "Validation of binding specificity: inhibition of cell attachment onto ECA", "details": "for inhibition of cell attachment onto ECA: 100 mM in culture media, attached cells counted after 20 h; for total number of attached cells with vs without pinacidil: on ECA, counted 20 h after plating", "description": "Cells were passaged and plated as described earlier. The two compounds expected to act as specific binding inhibitors for ECA were lactose monohydrate (Sigma-Aldrich, 100 mM) and lacto-N-neotetraose (Kyowa Hakko Kogyo, 100 mM). Saccharose (Sigma-Aldrich, 100 mM) was used as a control. The inhibitors were added to culture media at the time of passaging and the attached cells were counted after 20 hours.\nTo assess the specificity of the cell-lectin interaction in supporting stem cell attachment to the growth surface, we performed inhibition experiments with specific disaccharide inhibitors and control disaccharides. […] The experiments were performed either in the presence (FIG. 4A) of absence (FIG. 4B) of pinacidil. Even if the effect of the inhibitors was similar in both conditions, the total number of attached cells was […] with pinacidil.\nThe attached cells were counted 20 h after plating. Data represent the mean (±SEM) of both cell lines, FES 29 and HEL 11.4. The total number of attached cells was 2-4 fold higher when Pinacidil was used (p<0.001)."}, "[2]": {"system": "hPSC lines FES29 and HEL 11.4", "assay": "Long-term culture of hPSC lines on ECA-coated plates (markers, qPCR array, karyotype)", "details": "mEF conditioned media", "description": "Cells were passaged by using 0.1 mg/ml collagenase IV (Invitrogen) for 5 min at +37° C. and harvested onto ECA (Sigma-Aldrich) and Matrigel (Becton Dickinson) coated plates and cultured either in StemPro® or in mEF conditioned-medium (CM) (KO-DMEM supplemented with 20% KO-SR, 2 mM Glutamax, 0.1 mM β-mercaptoethanol, 0.1 mM non-essential amino acids (NEAA), all from Invitrogen, Carlsbad, Calif., USA) and supplemented with 8 ng/ml recombinant human bFGF (Invitrogen, Carlsbad, Calif., USA). Pinacidil (Sigma-Aldrich, 100 μM) was added to culture media during passaging. In some experiments, Y-27632 (10 μM) was added to culture media during passaging. In all experiments MatrigelTM (BD Biosciences) was used as control matrix. The Matrigel plates were prepared as recommended by the manufacturer. […] Real time SYBR Green quantitative PCR (qPCR) analyses was performed with Corbett Rotor-Gene 6000 (Corbett Life Science, Sydney, Australia) using the following conditions: 95° C. […] The data was analyzed according to comparative Ct method (Applied Biosystems, User Bulletin #2). […] All samples and controls were analyzed in duplicates. […] Karyotype was detected by G-banding technique in cytogenetics laboratory of the […] […] Long-term culturing on ECA-coated plates was evaluated with hPSCs lines (FES29 and HEL 11.4) and the results were compared to the same cell lines cultured on Matrigel. […]"}, "[3]": {"system": "hPSC cells", "assay": "Clonogenicity assay on dispersed single cells", "details": "pinacidil 100 μM during passaging", "quoted_text": "Cells were dissociated with TrypLE for 5 minutes and passed through an 80-μm cell strainer (Becton Dickinson). Dissociated single cells from either ECA or Matrigel were seeded onto both ECA and Matrigel (35 cells/cm^2) and cultured in mouse embryonic fibroblast-conditioned medium (CM) supplemented with 8 ng/ml basic fibroblast growth factor (bFGF). Pinacidil (100 μM) was used during passaging. To evaluate clonogenic capacity, cells were alkaline phosphatase stained and colony numbers were counted 10 days after plating.\nThe ability of the ECA matrix to support clonogenicity of hPSC cells was studied by plating dispersed cells first adapted to ECA or Matrigel for at least two passages on either of the two matrices at the density of 35 cells/cm^2."}},
  "note": "Entries after “also recorded” stand apart in the source; their conditions may differ.",
  "data": [
    {"smiles": "CC(=O)N[C@H]1[C@H](O[C@H]2[C@@H](O)[C@@H](CO)O[C@@H](O[C@H]3[C@H](O)[C@@H](O)C(O)O[C@@H]3CO)[C@@H]2O)O[C@H](CO)[C@@H](O[C@@H]2O[C@H](CO)[C@H](O)[C@H](O)[C@H]2O)[C@@H]1O", "note": "(mixture of isomers) [lacto-N-neotetraose]", "values": [
      {"measurement": "inhibition of cell attachment onto ECA", "setting": "[1]", "result": "as effective as lactose; also recorded: inhibited significantly"}
    ]},
    {"smiles": "O.OC[C@H]1O[C@@H](O[C@H]2[C@H](O)[C@@H](O)C(O)O[C@@H]2CO)[C@H](O)[C@@H](O)[C@H]1O", "note": "(some centres unmarked) [Lactose, lactose monohydrate]", "values": [
      {"measurement": "inhibition of cell attachment onto ECA", "setting": "[1]; listed as lactose monohydrate, monohydrate", "result": "inhibited significantly"},
      {"measurement": "inhibition of cell attachment onto ECA", "setting": "[1]; monohydrate", "result": "inhibited cell attachment effectively"}
    ]},
    {"smiles": "CC(N/C(=N\\C#N)Nc1ccncc1)C(C)(C)C", "note": "(centres unmarked) [pinacidil]", "values": [
      {"measurement": "cell attachment and morphology on ECA without/with Rho-associated kinase inhibitor during passaging", "setting": "[2]", "result": "Without pinacidil the cells did not attach as effectively"},
      {"measurement": "development and survival of single-cell derived clones", "setting": "[3]", "result": "highly useful"},
      {"measurement": "total number of attached cells with vs without pinacidil", "setting": "[1]", "result": 4, "unit": "fold"},
      {"measurement": "total number of attached cells with vs without pinacidil", "setting": "[1]; listed as Pinacidil", "result": "2-4 fold"}
    ]},
    {"smiles": "OC[C@H]1O[C@@](CO)(O[C@H]2O[C@H](CO)[C@@H](O)[C@H](O)[C@H]2O)[C@@H](O)[C@@H]1O", "note": "[saccharose]", "values": [
      {"measurement": "inhibition of cell attachment onto ECA", "setting": "[1]", "result": "no inhibitory activity"}
    ]}
  ]
}
